Measured values published in ChEMBL document CHEMBL1201861, “Genomics of Drug Sensitity in Cancer screening data, Wellcome Trust Sanger Institute”.

How the values were obtained:
Experiment in all cases: cells
ETK-1 = assay type: functional, cell-based, Homo sapiens; conditions: Homo sapiens, ETK-1;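 note: growth inhibition of human ETK-1 cells, read out with a cell viability assay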
Description: SANGER: Inhibition of human ETK-1 cell growth in a cell viability assay.

KGN = assay type: functional, cell-based, Homo sapiens; conditions: Homo sapiens, KGN;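 note: growth inhibition of KGN cells, read out with a cell viability assay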
NCI-H1581 = assay type: functional, cell-based, Homo sapiens; conditions: Homo sapiens, NCI-H1581;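 note: cell growth inhibition read out by a viability assay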
Description: SANGER: Inhibition of human NCI-H1581 cell growth in a cell viability assay.

OVCAR-3 = assay type: functional, cell-based, Homo sapiens; conditions: Homo sapiens, OVCAR-3;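 note: growth inhibition of human OVCAR-3 cells, determined by a cell viability assay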
Description: SANGER: Inhibition of human OVCAR-3 cell growth in a cell viability assay.

NB14 = assay type: functional, cell-based; conditions: Homo sapiens;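 note: growth inhibition of NB14 cells measured with a cell viability assay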
Description: SANGER: Inhibition of human NB14 cell growth in a cell viability assay.

CHP-212 = assay type: functional, cell-based, Homo sapiens; conditions: Homo sapiens, CHP-212
Description: SANGER: Inhibition of human CHP-212 cell growth in a cell viability assay.

MEL-HO = assay type: functional, cell-based, Homo sapiens; conditions: Homo sapiens, MEL-HO
Description: SANGER: Inhibition of human MEL-HO cell growth in a cell viability assay.

SHP77 = assay type: functional, cell-based, Homo sapiens, SHP-77; conditions: Homo sapiens, SHP77;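 note: growth inhibition of human SHP-77 cells measured by a cell viability assay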
Description: SANGER: Inhibition of human SHP-77 cell growth in a cell viability assay.

SNU-5 = assay type: functional, cell-based; conditions: Homo sapiens;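 note: cell viability readout used to measure growth inhibition in human NCI-SNU-5 cells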
Description: SANGER: Inhibition of human NCI-SNU-5 cell growth in a cell viability assay.

Ramos-2G6-4C10 = assay type: functional, cell-based; conditions: Homo sapiens;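 note: growth inhibition of the cell line, measured by a cell viability read-out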
Description: SANGER: Inhibition of human Ramos-2G6-4C10 cell growth in a cell viability assay.

DB = assay type: functional, cell-based; conditions: Homo sapiens
Description: SANGER: Inhibition of human DB cell growth in a cell viability assay.

ACN = assay type: functional, cell-based, Homo sapiens; conditions: Homo sapiens, ACN;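 note: growth inhibition of the human ACN cell line, read out via cell viability testing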
Description: SANGER: Inhibition of human ACN cell growth in a cell viability assay.

MC116 = assay type: functional, cell-based; conditions: Homo sapiens;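 note: growth inhibition of MC116 cells, read out with a cell viability assay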
Description: SANGER: Inhibition of human MC116 cell growth in a cell viability assay.

YKG-1 = assay type: functional, cell-based, Homo sapiens; conditions: Homo sapiens, YKG-1;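 note: cell growth inhibition, read out with a viability assay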
Description: SANGER: Inhibition of human YKG-1 cell growth in a cell viability assay.

KNS-81-FD = assay type: functional, cell-based, Homo sapiens; conditions: Homo sapiens, KNS-81-FD;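 note: growth inhibition of KNS-81-FD cells, read out with a cell viability assay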
Description: SANGER: Inhibition of human KNS-81-FD cell growth in a cell viability assay.

LU-99A = assay type: functional, cell-based, Homo sapiens; conditions: Homo sapiens, LU-99A;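 note: growth inhibition of LU-99A cells, read out with a cell viability assay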
Description: SANGER: Inhibition of human LU-99A cell growth in a cell viability assay.

P30-OHK = assay type: functional, cell-based; conditions: Homo sapiens;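 note: growth inhibition of the P30-OHK cell line, read out with a cell viability assay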
Description: SANGER: Inhibition of human P30-OHK cell growth in a cell viability assay.

D-336MG = assay type: functional, cell-based, Homo sapiens; conditions: Homo sapiens, D-336MG
Description: SANGER: Inhibition of human D-336MG cell growth in a cell viability assay.

EFO-21 = assay type: functional, cell-based, Homo sapiens; conditions: Homo sapiens, EFO-21;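 note: growth inhibition of EFO-21 cells measured with a viability assay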
Description: SANGER: Inhibition of human EFO-21 cell growth in a cell viability assay.

GB-1 = assay type: functional, cell-based, Homo sapiens; conditions: Homo sapiens, GB-1;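 note: growth of GB-1 cells judged by a viability assay, IC50 marks the concentration inhibiting growth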
Description: SANGER: Inhibition of human GB-1 cell growth in a cell viability assay.

RXF 393 = assay type: functional, cell-based; conditions: Homo sapiens;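 note: growth inhibition of human RXF 393 cells, read out with a cell viability assay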
OAW-42 = assay type: functional, cell-based, Homo sapiens; conditions: Homo sapiens, OAW-42;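 note: growth inhibition of OAW-42 cells, read out with a cell viability assay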
Description: SANGER: Inhibition of human OAW-42 cell growth in a cell viability assay.

NCI-H1299 = assay type: functional, cell-based, Homo sapiens; conditions: Homo sapiens, NCI-H1299;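 note: growth inhibition of human NCI-H1299 cells, read out by a cell viability assay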
Description: SANGER: Inhibition of human NCI-H1299 cell growth in a cell viability assay.

U2OS = assay type: functional, cell-based, Homo sapiens, U-2-OS; conditions: Homo sapiens, U2OS;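 note: growth inhibition of human U-2-OS cells, determined with a cell viability assay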
Description: SANGER: Inhibition of human U-2-OS cell growth in a cell viability assay.

LB771-HNC = assay type: functional, cell-based, Homo sapiens; conditions: Homo sapiens, LB771-HNC;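 note: growth inhibition of LB771-HNC human cells, read out with a cell viability assay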
IGROV-1 = assay type: functional, cell-based, Homo sapiens; conditions: Homo sapiens, IGROV-1;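 note: reduction of IGROV-1 cell growth, read out with a viability assay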
Description: SANGER: Inhibition of human IGROV-1 cell growth in a cell viability assay.

EFO-27 = assay type: functional, cell-based, Homo sapiens; conditions: Homo sapiens, EFO-27;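 note: growth inhibition of EFO-27 cells, read out with a cell viability assay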
Description: SANGER: Inhibition of human EFO-27 cell growth in a cell viability assay.

no-10 = assay type: functional, cell-based, Homo sapiens; conditions: Homo sapiens;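 note: growth inhibition of no-10 cells, read out with a cell viability assay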
Description: SANGER: Inhibition of human no-10 cell growth in a cell viability assay.

MeWo = assay type: functional, cell-based, Homo sapiens; conditions: Homo sapiens, MeWo;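 note: growth inhibition of MeWo cells, determined by a cell viability readout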
Description: SANGER: Inhibition of human Mewo cell growth in a cell viability assay.

C32 = assay type: functional, cell-based, Homo sapiens; conditions: Homo sapiens, C32;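 note: cell viability assay, with IC50 reflecting inhibition of C32 cell growth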
Description: SANGER: Inhibition of human C32 cell growth in a cell viability assay.

NCI-H1437 = assay type: functional, cell-based, Homo sapiens; conditions: Homo sapiens, NCI-H1437;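 note: growth inhibition of human NCI-H1437 cells, read out by a cell viability assay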
Description: SANGER: Inhibition of human NCI-H1437 cell growth in a cell viability assay.

MKN-1 = assay type: functional, cell-based, Homo sapiens; conditions: Homo sapiens, MKN-1;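 note: growth inhibition of human MKN1 cells, read out by a cell viability measurement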
Description: SANGER: Inhibition of human MKN1 cell growth in a cell viability assay.

SNB-75 = assay type: functional, cell-based, Homo sapiens; conditions: Homo sapiens, SNB-75;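 note: cell viability assay measuring growth inhibition of human SNB-75 cells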
Description: SANGER: Inhibition of human SNB75 cell growth in a cell viability assay.

HCC1187 = assay type: functional, cell-based, Homo sapiens; conditions: Homo sapiens, HCC1187;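 note: growth inhibition of HCC1187 cells, read out with a cell viability assay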
Description: SANGER: Inhibition of human HCC1187 cell growth in a cell viability assay.

EW-16 = assay type: functional, cell-based, Homo sapiens; conditions: Homo sapiens, EW-16;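 note: growth inhibition of human EW-16 cells, read out as cell viability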
Description: SANGER: Inhibition of human EW-16 cell growth in a cell viability assay.

BT-474 = assay type: functional, cell-based, Homo sapiens; conditions: Homo sapiens, BT-474
Description: SANGER: Inhibition of human BT-474 cell growth in a cell viability assay.

NB12 = assay type: functional, cell-based, Homo sapiens; conditions: Homo sapiens, NB12;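 note: growth inhibition of human NB12 cells, read out by a cell viability assay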
Description: SANGER: Inhibition of human NB12 cell growth in a cell viability assay.

KYSE-510 = assay type: functional, cell-based, Homo sapiens; conditions: Homo sapiens, KYSE-510;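 note: cell viability readout used to measure how strongly growth of the cell line is suppressed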
Description: SANGER: Inhibition of human KYSE-510 cell growth in a cell viability assay.

SJSA-1 = assay type: functional, cell-based, Homo sapiens; conditions: Homo sapiens, SJSA-1;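 note: growth inhibition of human SJSA-1 cells, read out through a cell viability measurement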
Description: SANGER: Inhibition of human SJSA-1 cell growth in a cell viability assay.

AN3-CA = assay type: functional, cell-based; conditions: Homo sapiens;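 note: growth inhibition of human AN3-CA cells measured by a cell viability assay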
Description: SANGER: Inhibition of human AN3-CA cell growth in a cell viability assay.

SW948 = assay type: functional, cell-based, Homo sapiens; conditions: Homo sapiens, SW948;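 note: growth inhibition of SW948 cells, read out with a cell viability assay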
Description: SANGER: Inhibition of human SW948 cell growth in a cell viability assay.

BFTC-909 = assay type: functional, cell-based, Homo sapiens; conditions: Homo sapiens, BFTC-909
Description: SANGER: Inhibition of human BFTC-909 cell growth in a cell viability assay.

Calu-6 = assay type: functional, cell-based, Homo sapiens; conditions: Homo sapiens, Calu-6;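 note: growth of human Calu-6 cells, read out by a cell viability assay, IC50 marking inhibition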
Description: SANGER: Inhibition of human Calu-6 cell growth in a cell viability assay.

NCI-H1838 = assay type: functional, cell-based, Homo sapiens; conditions: Homo sapiens, NCI-H1838;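 note: growth inhibition of NCI-H1838 cells, determined with a cell viability readout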
Description: SANGER: Inhibition of human NCI-H1838 cell growth in a cell viability assay.

MDA-MB-157 = assay type: functional, cell-based, Homo sapiens; conditions: Homo sapiens, MDA-MB-157
Description: SANGER: Inhibition of human MDA-MB-157 cell growth in a cell viability assay.

KYSE-70 cell line = assay type: functional, cell-based, Homo sapiens; conditions: Homo sapiens, KYSE-70;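 note: cell viability assay read-out, with IC50 expressing suppression of KYSE-70 cell growth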
Description: SANGER: Inhibition of human KYSE-70 cell growth in a cell viability assay.

SNU-387 = assay type: functional, cell-based, Homo sapiens; conditions: Homo sapiens, SNU-387
Description: SANGER: Inhibition of human SNU-387 cell growth in a cell viability assay.

HLE = assay type: functional, cell-based, Homo sapiens; conditions: Homo sapiens, HLE;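 note: growth inhibition of human HLE cells, read out by a cell viability assay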
Description: SANGER: Inhibition of human HLE cell growth in a cell viability assay.

OCI-AML2 = assay type: functional, cell-based; conditions: Homo sapiens;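 note: growth inhibition of OCI-AML2 cells, read out with a cell viability assay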
Description: SANGER: Inhibition of human OCI-AML2 cell growth in a cell viability assay.

TGBC1TKB = assay type: functional, cell-based, Homo sapiens; conditions: Homo sapiens, TGBC1TKB;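 note: growth inhibition of TGBC1TKB cells, read out by a cell viability assay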
Description: SANGER: Inhibition of human TGBC1TKB cell growth in a cell viability assay.

NCI-H226 = assay type: functional, cell-based, Homo sapiens; conditions: Homo sapiens, NCI-H226;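 note: cell viability read-out used to gauge growth inhibition of the cells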
Description: SANGER: Inhibition of human NCI-H226 cell growth in a cell viability assay.

Measured: IC50

O=C(NOCC1CC1)c1ccc(F)c(F)c1Nc1ccc(I)cc1Cl [CI-1040]
4.45 µM: IGROV-1
> 10 µM: ETK-1 | OVCAR-3 | SHP77 | Ramos-2G6-4C10 | MC116 | KNS-81-FD | D-336MG | EFO-21 | GB-1 | OAW-42 | NCI-H1299 | LB771-HNC | no-10 | MKN-1 | SNB-75 | HCC1187 | BT-474 | NB12 | KYSE-510 | SJSA-1 | SW948 | BFTC-909 | NCI-H1838 | MDA-MB-157 | KYSE-70 cell line | SNU-387 | HLE | OCI-AML2 | NCI-H226
0.0289 µM: CHP-212
5.66 µM: LU-99A
3.68 µM: SNU-5
6.69 µM: AN3-CA
1.55 µM: NCI-H1437
7.67 µM: NB14
0.191 µM: C32
2.59 µM: DB
8.26 µM: NCI-H1581
3.67 µM: U2OS
6.8 µM: Calu-6
4.79 µM: EFO-27
0.277 µM: MEL-HO
9.84 µM: KGN
9.75 µM: YKG-1
9.65 µM: P30-OHK
1.2 µM: MeWo
8.08 µM: EW-16
1.98 µM: RXF 393
0.267 µM: ACN
7.89 µM: TGBC1TKB

Cn1cc(C2=C(c3ccc(Cl)cc3Cl)C(=O)NC2=O)c2ccccc21 [SB-216763]
> 10 µM: ETK-1 | KGN | NCI-H1581 | OVCAR-3 | NB14 | CHP-212 | MEL-HO | SHP77 | SNU-5 | Ramos-2G6-4C10 | DB | ACN | MC116 | YKG-1 | KNS-81-FD | LU-99A | P30-OHK | D-336MG | EFO-21 | GB-1 | RXF 393 | OAW-42 | NCI-H1299 | U2OS | LB771-HNC | IGROV-1 | EFO-27 | no-10 | MeWo | C32 | NCI-H1437 | MKN-1 | SNB-75 | HCC1187 | EW-16 | BT-474 | NB12 | KYSE-510 | SJSA-1 | AN3-CA | SW948 | BFTC-909 | Calu-6 | NCI-H1838 | MDA-MB-157 | KYSE-70 cell line | SNU-387 | HLE | OCI-AML2 | TGBC1TKB | NCI-H226

CN(C)C/C=C/C(=O)Nc1cc2c(Nc3ccc(F)c(Cl)c3)ncnc2cc1O[C@H]1CCOC1 [AFATINIB]
0.0499 µM: BT-474
0.26 µM: IGROV-1
> 0.5 µM: ETK-1 | KGN | NCI-H1581 | OVCAR-3 | NB14 | CHP-212 | MEL-HO | SHP77 | SNU-5 | Ramos-2G6-4C10 | DB | ACN | MC116 | YKG-1 | KNS-81-FD | LU-99A | P30-OHK | D-336MG | EFO-21 | GB-1 | RXF 393 | OAW-42 | NCI-H1299 | U2OS | LB771-HNC | no-10 | MeWo | C32 | NCI-H1437 | MKN-1 | SNB-75 | HCC1187 | EW-16 | NB12 | KYSE-510 | SJSA-1 | AN3-CA | SW948 | BFTC-909 | Calu-6 | NCI-H1838 | MDA-MB-157 | KYSE-70 cell line | SNU-387 | OCI-AML2 | TGBC1TKB | NCI-H226
0.0518 µM: EFO-27
0.35 µM: HLE
